In patent US5633248A, “Amine compounds, their production and use” (priority 1994, dated 1997):
Counter-ions that a name gives are not always drawn.

Legend:
Rat GnRH Receptor = target: T1, Rat GnRH Receptor (Rattus norvegicus, UniProt P30969); test: ^125 I-leuprolerin binding inhibition, rat anterior pituitary membrane fraction; set-up: species or system rat (Wistar); conditions: 4° C. for 90 minutes, read-out: GnRH-receptor binding inhibitory activity (IC50, μM) Rat
T1 construct: from tissue; host or cells: anterior pituitary of male Wistar rats (8 weeks old), membrane fraction
T1 sequence (P30969 1-327): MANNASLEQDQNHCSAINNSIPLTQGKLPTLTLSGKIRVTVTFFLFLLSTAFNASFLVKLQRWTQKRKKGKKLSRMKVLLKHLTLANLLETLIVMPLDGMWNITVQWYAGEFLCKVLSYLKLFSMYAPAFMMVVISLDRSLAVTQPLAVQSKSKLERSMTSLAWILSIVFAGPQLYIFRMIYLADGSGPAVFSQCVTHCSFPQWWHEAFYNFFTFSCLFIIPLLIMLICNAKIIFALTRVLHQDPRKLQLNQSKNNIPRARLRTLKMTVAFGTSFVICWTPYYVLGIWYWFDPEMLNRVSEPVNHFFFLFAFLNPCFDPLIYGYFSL
Protocol: A tube was filled with 10 μl of an aqueous solution of leuprolerin (3×10^4 M) and lactoperoxidase (0.01 mg/ml) followed by addition of 10 μl of Na^125 I solution (37 MBq). After stirring, 10 μl of 0.001% H2 O2 was added and the reaction was conducted at room temperature for 20 minutes. The reaction was stopped by adding 700 μl of 0.05% TFA and the reaction mixture was subjected to reversed-phase HPLC under the conditions set forth below. ^125 I-leuprolerin was eluted with a retention time of 26-27 minutes. Forty rats (8 weeks old, male) of Wistar strain were decapitated under no anesthesia and the anterior pituitary isolated from each animal was washed with an ice-cooled homogenate buffer (25 mM Tris (tris(hydroxylmethyl)aminomethane)-HCl, 0.3M sucrose, 1 mM EGTA (ethylene-bis(oxyethylenenitrilo)tetraacetic acid), 0.25 mM PMSF (phenylmethylsulfonyl fluoride), 10 U/ml aprotinin, 1 μg/ml pepstatin, 20 μg/ml leupeptin, 100 μg/ml phosphoramidon, 0.03% sodium azide; pH 7.5). The anterior pituitary was suspended in 2 ml of the same homogenate buffer as above and homogenized using a Polytron homogenizer. The homogenate thus prepared was centrifuged at 700 xg for 15 minutes and the supernatant was transferred to an ultracentrifuge cuvette and further centrifuged at 100,000 xg for 1 hour to provide a membrane fraction pellet. This pellet was suspended in 2 ml of an assay buffer (25 mM Tris-HCl, 1 mM ethylenediaminetetraacetic acid (EDTA), 0.1% bovine serum albumin (BSA), 0.25 mM PMSF, 1 μg/ml pepstatin, 20 μg/ml leupeptin, 100 μg/ml phosphoramidon, 0.03% sodium azide; pH 7.5) and centrifuged at 100,000 xg for 1 hour. The membrane fraction recovered as a pellet was resuspended in 10 ml of the same assay buffer as above, distributed into vials, preserved at -80° C., and reconstituted before use. The rat and human membrane fractions prepared under (B) and (D) were respectively diluted with the assay buffer to make 200 μg/ml each and 188 μl aliquots of each dilution were distributed into tubes. The bovine membrane fraction prepared under (C) was diluted with the assay buffer to make 750 μg/ml and 188 μl aliquots of the dilution were distributed into tubes. When the rat anterior pituitary membrane fraction was used, 2 μl of 0.1 mM compound/60% dimethyl sulfoxide (DMSO) and 10 μl of 38 nM ^125 I-leuprolerin were concurrently added. […] For determination of maximum binding, a reaction mixture was prepared by adding 2 μl of 60% DMSO and 10 μl of 38 nM ^125 I-leuprolerin. For determination of non-specific binding, a reaction mixture was prepared using 2 μl of 100 μM leuprolerin/60% DMSO and 10 μl of […] ^125 I-leuprolerin. When the rat and bovine anterior pituitary membrane fractions were used, each reaction was carried out at 4° C. for 90 minutes. On the other hand, when the human GnRH receptor-expressed CHO cell membrane fraction was used, the reaction was conducted at 25° C. for 60 minutes. After completion of the reaction, the reaction mixture was suction-filtered through a polyethyleneimine-treated Whatman glass filter (GF-F) [trademark;whatman]. After filtration, the radioactivity of the residual ^125 I-leuprolerin on the filter was measured using a γ-counter. The computation formula of (TB-SB)/(TB-NSB)×100 (SB=radioactivity bound in the presence of the test compound, TB=maximum amount of radioactivity bound, NSB=amount of radioactivity nonspecifically bound) was calculated to find the binding inhibition rate for the test compound. Moreover, the inhibition rate was determined by varying the concentration of each test compound and the concentration of the compound causing 50% inhibition of binding (IC50 value) was calculated by Hill plot.

Human GnRH receptor = target: T2, Human GnRH receptor (Homo sapiens, UniProt P30968); test: ^125 I-leuprolerin binding inhibition, human GnRH receptor-expressed CHO cell membrane fraction; conditions: 25° C. for 60 minutes, read-out: GnRH-receptor binding inhibitory activity (IC50, μM) Man
T2 construct: expressed in transfected cells; host or cells: CHO (Chinese hamster ovary) cells, membrane fraction
T2 sequence (P30968 1-328): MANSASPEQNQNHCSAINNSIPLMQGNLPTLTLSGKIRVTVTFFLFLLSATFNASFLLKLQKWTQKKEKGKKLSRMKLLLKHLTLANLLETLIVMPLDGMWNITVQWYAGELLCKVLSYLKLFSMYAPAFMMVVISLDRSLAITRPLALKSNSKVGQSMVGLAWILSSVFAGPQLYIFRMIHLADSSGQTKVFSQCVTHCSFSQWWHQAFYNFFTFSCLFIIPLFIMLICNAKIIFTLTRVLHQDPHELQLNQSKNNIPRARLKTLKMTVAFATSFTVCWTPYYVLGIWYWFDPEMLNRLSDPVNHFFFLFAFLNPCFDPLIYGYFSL
Protocol: A tube was filled with 10 μl of an aqueous solution of leuprolerin (3×10^4 M) and lactoperoxidase (0.01 mg/ml) followed by addition of 10 μl of Na^125 I solution (37 MBq). After stirring, 10 μl of 0.001% H2 O2 was added and the reaction was conducted at room temperature for 20 minutes. The reaction was stopped by adding 700 μl of 0.05% TFA and the reaction mixture was subjected to reversed-phase HPLC under the conditions set forth below. ^125 I-leuprolerin was eluted with a retention time of 26-27 minutes. […] To the sediment was added 10 ml of a cell homogenate buffer (10 mM NaHCO3, 5 mM EDTA, pH 7.5) and the mixture was homogenized using a Polytron homogenizer. The homogenate was centrifuged at 400 xg for 15 minutes and the supernatant was transferred to an ultracentrifuge cuvette and centrifuged at 100,000 xg for 1 hour to prepare a membrane fraction pellet. This pellet was suspended in 2 ml of the assay buffer and further centrifuged at 100,000 xg for 1 hour. The membrane fraction recovered as a pellet was resuspended in 20 ml of the assay buffer, distributed into vials, preserved at -80° C., and reconstituted before use. The rat and human membrane fractions prepared under (B) and (D) were respectively diluted with the assay buffer to make 200 μg/ml each and 188 μl aliquots of each dilution were distributed into tubes. The bovine membrane fraction prepared under (C) was diluted with the assay buffer to make 750 μg/ml and 188 μl aliquots of the dilution were distributed into tubes. When the rat anterior pituitary membrane fraction was used, 2 μl of 0.1 mM compound/60% dimethyl sulfoxide (DMSO) and 10 μl of 38 nM ^125 I-leuprolerin were concurrently added. […] For determination of maximum binding, a reaction mixture was prepared by adding 2 μl of 60% DMSO and 10 μl of 38 nM ^125 I-leuprolerin. For determination of non-specific binding, a reaction mixture was prepared using 2 μl of 100 μM leuprolerin/60% DMSO and 10 μl of […] ^125 I-leuprolerin. When the rat and bovine anterior pituitary membrane fractions were used, each reaction was carried out at 4° C. for 90 minutes. On the other hand, when the human GnRH receptor-expressed CHO cell membrane fraction was used, the reaction was conducted at 25° C. for 60 minutes. After completion of the reaction, the reaction mixture was suction-filtered through a polyethyleneimine-treated Whatman glass filter (GF-F) [trademark;whatman]. After filtration, the radioactivity of the residual ^125 I-leuprolerin on the filter was measured using a γ-counter. The computation formula of (TB-SB)/(TB-NSB)×100 (SB=radioactivity bound in the presence of the test compound, TB=maximum amount of radioactivity bound, NSB=amount of radioactivity nonspecifically bound) was calculated to find the binding inhibition rate for the test compound. Moreover, the inhibition rate was determined by varying the concentration of each test compound and the concentration of the compound causing 50% inhibition of binding (IC50 value) was calculated by Hill plot.

Molecule `COc1cc2c(cc1OC)CC1(CCCCN1CCCC(CCCNC(=O)Cc1ccc([N+](=O)[O-])cc1)(c1ccccc1)c1ccccc1)CC2` (stereo not shown) [II-53, 3,4-Dihydro-6,7-dimethoxy-1'-{4,4-diphenyl-7-[(4-nitrophenylacetyl)amino]heptyl}spiro[naphthalene-2(1H),2'-piperidine] hydrochloride] has an IC50 (Rat GnRH Receptor) of 0.01 µM and an IC50 (Human GnRH receptor) of 0.8 µM.
`COc1cc2c(cc1OC)CC1(CCCCN1CCCC(CCCNC(=O)Cc1ccc3c(c1)OCO3)(c1ccccc1)c1ccccc1)CC2` (stereo not shown) [II-60, 3,4-Dihydro-6,7-dimethoxy-1'-{4,4-diphenyl-7-[(3,4-methylenedioxyphenylacetyl)amino]heptyl}spiro[naphthalene-2(1H),2'-piperidine] hydrochloride] showed an IC50 (Rat GnRH Receptor) of 0.002 µM and an IC50 (Human GnRH receptor) of 0.1 µM.
With `COc1cc2c(cc1OC)CC1(CCCCN1CCCC(CCCNC(=O)Cc1ccc(Cl)cc1)(c1ccccc1)c1ccccc1)CC2` (stereo not shown) [II-51, 3,4-Dihydro-6,7-dimethoxy-1'-{4,4-diphenyl-7-[(4-chlorophenylacetyl)amino]heptyl}spiro[naphthalene-2(1H),2'-piperidine] hydrochloride] the IC50 (Rat GnRH Receptor) was 0.002 µM and the IC50 (Human GnRH receptor) was 0.08 µM.
`COc1cc2c(cc1OC)CC1(CCCCN1CCCC(CCCNC(=O)CCc1ccccc1)(c1ccccc1)c1ccccc1)CC2` (stereo not shown) [II-64, 3,4-Dihydro-6,7-dimethoxy-1'-{4,4-diphenyl-7-[(3-phenylpropionyl)amino]heptyl}spiro[naphthalene-2(1H),2'-piperidine] hydrochloride] was tested, and the IC50 (Rat GnRH Receptor) was 0.009 µM and the IC50 (Human GnRH receptor) was 0.2 µM.
`COc1ccc(CC(=O)NCCCC(CCCN2CCCCC23CCc2cc(OC)c(OC)cc2C3)(c2ccc(F)cc2)c2ccc(F)cc2)cc1` (stereo not shown) [II-68, 3,4-Dihydro-6,7-dimethoxy-1'-{4,4-bis(4-fluorophenyl)-7-[(4-methoxyphenylacetyl)amino]heptyl}spiro[naphthalene-2(1H),2'-piperidine] hydrochloride] was tested, and the IC50 (Rat GnRH Receptor) was 0.009 µM and the IC50 (Human GnRH receptor) was 0.4 µM.
